The values that follow come from US20260138961A1, “MODULATORS OF MITOCHONDRIAL DNA REPLICATION” (Pretzel Therapeutics, Inc., priority 2022, published 2026).

Structures are written as SMILES. Some results are limits rather than exact numbers.

Broadly, the AC50 is the midpoint of the concentration-response curve, whichever way the signal moves.

The target in one assay is T1, POLγA:A467T (Homo sapiens, UniProt P54098, A467T).
T1 sequence (P54098 1-1239 A467T): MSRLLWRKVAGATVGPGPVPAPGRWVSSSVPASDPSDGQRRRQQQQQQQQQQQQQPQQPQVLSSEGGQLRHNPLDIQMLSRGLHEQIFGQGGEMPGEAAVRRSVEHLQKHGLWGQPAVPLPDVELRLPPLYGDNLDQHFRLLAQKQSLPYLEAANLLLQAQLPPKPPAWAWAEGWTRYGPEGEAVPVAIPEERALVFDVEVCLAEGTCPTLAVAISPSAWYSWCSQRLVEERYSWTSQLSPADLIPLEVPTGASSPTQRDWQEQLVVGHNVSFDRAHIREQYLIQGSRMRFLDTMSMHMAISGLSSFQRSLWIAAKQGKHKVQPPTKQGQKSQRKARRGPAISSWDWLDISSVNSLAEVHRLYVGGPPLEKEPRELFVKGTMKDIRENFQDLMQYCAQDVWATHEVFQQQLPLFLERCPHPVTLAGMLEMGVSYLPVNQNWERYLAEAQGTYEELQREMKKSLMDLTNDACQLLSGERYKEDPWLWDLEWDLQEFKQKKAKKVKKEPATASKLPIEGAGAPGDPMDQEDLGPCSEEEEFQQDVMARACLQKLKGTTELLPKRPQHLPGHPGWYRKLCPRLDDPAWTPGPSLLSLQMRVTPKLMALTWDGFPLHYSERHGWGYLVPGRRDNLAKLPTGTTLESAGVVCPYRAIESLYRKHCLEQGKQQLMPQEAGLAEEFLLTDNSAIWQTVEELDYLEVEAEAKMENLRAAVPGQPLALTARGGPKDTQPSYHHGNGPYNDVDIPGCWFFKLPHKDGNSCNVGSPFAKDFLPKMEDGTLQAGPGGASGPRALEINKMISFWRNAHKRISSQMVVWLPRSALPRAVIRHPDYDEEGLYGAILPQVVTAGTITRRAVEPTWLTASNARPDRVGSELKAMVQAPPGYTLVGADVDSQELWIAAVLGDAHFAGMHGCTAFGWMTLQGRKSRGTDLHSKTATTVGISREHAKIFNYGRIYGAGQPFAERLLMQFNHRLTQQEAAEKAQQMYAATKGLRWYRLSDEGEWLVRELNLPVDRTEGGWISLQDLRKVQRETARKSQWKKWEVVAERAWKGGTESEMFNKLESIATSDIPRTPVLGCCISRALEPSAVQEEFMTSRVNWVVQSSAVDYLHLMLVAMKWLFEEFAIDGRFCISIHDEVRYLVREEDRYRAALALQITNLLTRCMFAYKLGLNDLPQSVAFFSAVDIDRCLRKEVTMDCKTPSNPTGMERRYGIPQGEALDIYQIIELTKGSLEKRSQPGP
T1 sequence (Q9UHN1 1-485 partner): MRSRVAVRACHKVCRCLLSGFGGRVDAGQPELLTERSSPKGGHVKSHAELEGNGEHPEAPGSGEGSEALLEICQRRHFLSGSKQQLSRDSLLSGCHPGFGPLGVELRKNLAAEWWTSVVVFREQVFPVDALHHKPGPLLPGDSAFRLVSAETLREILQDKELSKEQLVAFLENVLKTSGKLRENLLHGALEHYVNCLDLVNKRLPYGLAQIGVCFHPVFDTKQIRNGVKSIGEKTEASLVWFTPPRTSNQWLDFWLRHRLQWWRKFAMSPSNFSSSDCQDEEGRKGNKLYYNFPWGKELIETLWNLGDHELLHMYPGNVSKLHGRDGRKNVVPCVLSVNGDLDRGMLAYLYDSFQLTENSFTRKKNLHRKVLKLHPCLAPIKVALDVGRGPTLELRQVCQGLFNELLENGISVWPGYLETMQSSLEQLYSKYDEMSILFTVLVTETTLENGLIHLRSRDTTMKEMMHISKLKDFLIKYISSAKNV
Briefly: DNA polymerization assay, POLγA:A467T mutant. The assay is classed as biochemical. The conditions noted are these: A467T AC50, stimulation of polymerase activity, primed M13mp18 ssDNA, 37° C. 2 hours.
The molecule `Cc1cc(S(=O)(=O)Nc2noc(-c3ccccc3)n2)c(C)cc1Cl` [Example 142, 4-chloro-2,5-dimethyl-N-(5-phenyl-1,2,4-oxadiazol-3-yl)benzenesulfonamide] displayed a concentration at half-maximal activity (AC50) above 100 µM.

Still in this assay, the particulars now being: stimulation of polymerase activity, primed M13mp18 ssDNA, 37° C. 2 hours; read-out: A467T AC50.
For the molecule `Cc1cc(S(=O)(=O)Nc2cccc(C(=O)N(C)C(C)CO)c2)c(C)cc1Cl` (single isomer, unassigned) [Example 14, 3-((4-chloro-2,5-dimethylphenyl)sulfonamido)-N-(1-hydroxypropan-2-yl)-N-methylbenzamide], the AC50 turned out to be 28 µM. Take `Cc1cc(S(=O)(=O)N[C@@H]2CCCN(C(=O)c3ccccc3)C2)c(C)cc1Cl` [Example 150, (R)-N-(1-benzoylpiperidin-3-yl)-4-chloro-2,5-dimethylbenzenesulfonamide]: the AC50 was above 100 µM. Same read-out and setting: the value for `Cc1cc(S(=O)(=O)N[C@@H]2CCCN(C(=O)[C@@H]3CCCN3C)C2)c(C)cc1Cl` [Example 104, 4-chloro-2,5-dimethyl-N-((R)-1-(methyl-L-prolyl)piperidin-3-yl)benzenesulfonamide] was above 100 µM.

Consider `Cc1cnc(-c2cc(NS(=O)(=O)c3cc(C)c(Cl)cc3C)ccc2Cl)s1` [Example 111, 4-chloro-N-(4-chloro-3-(5-methylthiazol-2-yl)phenyl)-2,5-dimethylbenzenesulfonamide], for which the AC50 is above 100 µM. For the molecule `Cc1cc(S(=O)(=O)Nc2cc(F)cc(C(=O)N3CCC[C@H]3C)c2)c(C)cc1Cl` [Example 13, (R)-4-chloro-N-(3-fluoro-5-(2-methylpyrrolidine-1-carbonyl)phenyl)-2,5-dimethylbenzenesulfonamide], the AC50 is 33 µM.

On to `Cc1ccc(C)c(S(=O)(=O)Nc2cccc(C(=O)N3CCCC[C@@H]3C)c2)c1` [Example 6, (S)-2,5-dimethyl-N-(3-(2-methylpiperidine-1-carbonyl)phenyl)benzenesulfonamide], for which the AC50 worked out at 95 µM.

Take `Cc1cc(S(=O)(=O)Nc2cccc(C(=O)N3CCCC3)c2)c(C)cc1Cl` [Example 119, 4-chloro-2,5-dimethyl-N-(3-(pyrrolidine-1-carbonyl)phenyl) benzenesulfonamide]: the AC50 is above 100 µM. For `Cc1cc(S(=O)(=O)Nc2cccc(C(=O)N(C(C)C)C3COC3)c2)c(C)cc1Cl` [Example 112, 3-((4-chloro-2,5-dimethylphenyl)sulfonamido)-N-isopropyl-N-(oxetan-3-yl)benzamide], the AC50 was above 100 µM. For the molecule `Cc1cc(F)ccc1S(=O)(=O)Nc1csc(-c2ccccc2)n1` [Example 124, 4-fluoro-2-methyl-N-(2-phenylthiazol-4-yl)benzenesulfonamide], the AC50 is above 100 µM. As for `Cc1cc(S(=O)(=O)Nc2cccc(-c3ncc(C#N)s3)c2)c(C)cc1Cl` [Example 96, 4-chloro-N-(3-(5-cyanothiazol-2-yl)phenyl)-2,5-dimethylbenzenesulfonamide], the AC50 stood at 24 µM. Take `Cc1cc(S(=O)(=O)Nc2cccc(-c3ccn(C)n3)c2)c(C)cc1Cl` [Example 18, 4-chloro-2,5-dimethyl-N-(3-(1-methyl-1H-pyrazol-3-yl)phenyl)benzenesulfonamide]: the AC50 was 17 µM.

Regarding `CNC(=O)c1cnc(-c2cccc(NS(=O)(=O)c3cc(C)c(Cl)cc3C)c2)s1` [Example 93, 2-(3-((4-chloro-2,5-dimethylphenyl)sulfonamido)phenyl)-N-methylthiazole-5-carboxamide], the AC50 was above 100 µM. As for `Cc1cc(S(=O)(=O)N[C@@H]2CCCN(c3ccccc3)C2)c(C)cc1Cl` [Example 149, (R)-4-chloro-2,5-dimethyl-N-(1-phenylpiperidin-3-yl)benzenesulfonamide], the AC50 is above 100 µM. The same measure, in the same setting: to `Cc1cc(S(=O)(=O)Nc2cccc(C(=O)N3C[C@H](C)[C@@H](N)C3)c2)c(C)cc1Cl` [Example 108, N-(3-((3R,4S)-3-amino-4-methylpyrrolidine-1-carbonyl)phenyl)-4-chloro-2,5-dimethylbenzenesulfonamide] belongs above 100 µM; to `Cc1cc(S(=O)(=O)Nc2cccc(-c3ncc(-c4nnn[nH]4)s3)c2)c(C)cc1Cl` [Example 97, N-(3-(5-(1H-tetrazol-5-yl)thiazol-2-yl)phenyl)-4-chloro-2,5-dimethylbenzenesulfonamide], above 100 µM; to `Cc1cnc(-c2cc(NS(=O)(=O)c3cc(C)c(Cl)cc3C)ccc2C)s1` [Example 103, 4-chloro-2,5-dimethyl-N-(4-methyl-3-(5-methylthiazol-2-yl)phenyl)benzenesulfonamide], above 100 µM. The same measure, in the same setting: to `Cc1cc(S(=O)(=O)Nc2cccc(-c3ncco3)c2)c(C)cc1Cl` [Example 17, 4-chloro-2,5-dimethyl-N-(3-(oxazol-2-yl)phenyl)benzenesulfonamide] belongs 6 µM. Still for that read-out and setting: the value for `Cc1cc(S(=O)(=O)Nc2cccc(C(=O)N3CCC[C@H]3C)c2)c(C)cc1Cl` [Example 10, (R)-4-chloro-2,5-dimethyl-N-(3-(2-methylpyrrolidine-1-carbonyl)phenyl)benzenesulfonamide] was 12 µM; that for `Cc1ccc(C)c(S(=O)(=O)Nc2cccc(C(=O)N3CCCCC3)c2)c1` [Example 3, 2,5-dimethyl-N-(3-(piperidine-1-carbonyl)phenyl)benzene sulfonamide] was 48 µM; that for `O=S(=O)(Nc1csc(-c2ccccc2)n1)c1ccc(C(F)(F)F)cc1` [Example 127, N-(2-phenylthiazol-4-yl)-4-(trifluoromethyl)benzenesulfonamide] was above 100 µM.

As for `Cc1cc(S(=O)(=O)Nc2cccc(C(=O)N3CCCC4(CC4)C3)c2)c(C)cc1Cl` [Example 105, N-(3-(5-azaspiro[2.5]octane-5-carbonyl)phenyl)-4-chloro-2,5-dimethylbenzenesulfonamide], the AC50 is above 100 µM.
